Reference: ChEMBL document CHEMBL1131663, “Terphenyl cyclooxygenase-2 (COX-2) inhibitors: optimization of the central ring and o-biphenyl analogs” (Bioorg Med Chem Lett, 1999)

Key:
[1] = target: T1, Prostaglandin G/H synthase 2 (Homo sapiens, UniProt P35354); experiment: In vitro inhibitory concentration against recombinant human Prostaglandin G/H synthase 2 obtained from baculovirus
T1 sequence (P35354 whole entry): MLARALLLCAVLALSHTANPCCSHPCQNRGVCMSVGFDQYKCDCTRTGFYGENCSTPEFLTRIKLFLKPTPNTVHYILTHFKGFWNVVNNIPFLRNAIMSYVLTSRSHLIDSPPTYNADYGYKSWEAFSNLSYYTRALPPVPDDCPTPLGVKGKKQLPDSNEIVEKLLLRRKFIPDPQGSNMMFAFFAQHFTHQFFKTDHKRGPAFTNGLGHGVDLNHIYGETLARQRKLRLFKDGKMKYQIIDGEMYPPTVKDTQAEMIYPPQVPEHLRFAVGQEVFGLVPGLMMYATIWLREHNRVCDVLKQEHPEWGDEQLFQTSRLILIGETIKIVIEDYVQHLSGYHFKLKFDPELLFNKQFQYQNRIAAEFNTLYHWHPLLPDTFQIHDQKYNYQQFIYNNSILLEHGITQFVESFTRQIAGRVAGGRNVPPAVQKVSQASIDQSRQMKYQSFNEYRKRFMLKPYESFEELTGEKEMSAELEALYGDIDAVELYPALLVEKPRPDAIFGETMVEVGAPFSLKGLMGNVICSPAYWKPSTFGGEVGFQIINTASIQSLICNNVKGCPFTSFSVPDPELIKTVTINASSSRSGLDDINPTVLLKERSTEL

[2] = target: T2, Prostaglandin G/H synthase 1 (Ovis aries, UniProt P05979); experiment: In vitro inhibitory concentration against ovine COX-1
T2 sequence (P05979 whole entry): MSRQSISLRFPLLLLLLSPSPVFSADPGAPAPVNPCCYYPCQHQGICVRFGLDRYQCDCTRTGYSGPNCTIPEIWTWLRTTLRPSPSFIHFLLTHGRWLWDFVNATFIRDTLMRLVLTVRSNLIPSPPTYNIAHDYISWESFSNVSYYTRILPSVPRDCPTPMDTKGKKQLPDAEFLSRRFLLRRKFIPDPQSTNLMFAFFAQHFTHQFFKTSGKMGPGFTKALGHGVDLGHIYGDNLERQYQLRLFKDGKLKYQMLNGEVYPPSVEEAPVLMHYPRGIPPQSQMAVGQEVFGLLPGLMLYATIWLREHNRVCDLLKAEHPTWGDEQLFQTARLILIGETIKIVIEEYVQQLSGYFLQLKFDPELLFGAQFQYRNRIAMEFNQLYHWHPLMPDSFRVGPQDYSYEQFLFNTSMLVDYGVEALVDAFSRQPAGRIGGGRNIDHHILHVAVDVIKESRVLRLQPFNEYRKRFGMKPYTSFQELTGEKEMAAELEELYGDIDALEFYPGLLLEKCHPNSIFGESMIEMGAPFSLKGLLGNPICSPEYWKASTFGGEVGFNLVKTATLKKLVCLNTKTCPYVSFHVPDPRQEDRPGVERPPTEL

IC50 [1] [µM] | IC50 [2] [µM] | SMILES
48 | > 300 | COC(=O)c1ccc(-c2ccccc2)c(-c2ccc(S(C)(=O)=O)cc2)c1
44 | > 100 | CS(=O)(=O)c1ccc(-c2ccc([N+](=O)[O-])cc2-c2ccccc2)cc1
33 | > 1000 | CS(=O)(=O)c1ccc(-c2ccccc2Oc2ccccc2)cc1
33 | > 1000 | CS(=O)(=O)c1ccc(-c2ccccc2C2=CCCCC2)cc1
41 | > 300 | CS(=O)(=O)c1ccc(-c2cc3ccccc3cc2-c2ccccc2)cc1
> 300 | > 300 | CS(=O)(=O)c1ccc(-c2ccccc2-c2ccccn2)cc1
194 | 35 | CS(=O)(=O)c1ccc(-c2cc(N)ccc2-c2ccccc2)cc1
> 300 | 232 | CS(=O)(=O)c1ccc(-c2cc(C(=O)O)ccc2-c2ccccc2)cc1
87 | > 300 | CS(=O)(=O)c1ccc(-c2ccccc2-c2cccnc2)cc1
38 | > 300 | CS(=O)(=O)c1ccc(-c2cc([N+](=O)[O-])ccc2-c2ccccc2)cc1
> 300 | > 300 | CS(=O)(=O)c1ccc(-c2ccccc2-c2ccncc2)cc1
14 | 43 | CS(=O)(=O)c1ccc(-c2ccccc2N2CCCCC2)cc1
> 300 | > 300 | CS(=O)(=O)c1ccc(-c2ncccc2-c2ccccc2)cc1
30 | > 1000 | COc1ccc2cc(-c3ccccc3-c3ccc(S(C)(=O)=O)cc3)ccc2c1
> 300 | > 300 | CS(=O)(=O)c1ccc(-c2nccnc2-c2ccccc2)cc1
57 | > 1000 | CS(=O)(=O)c1ccc(-c2ccccc2-c2ccc3ccccc3n2)cc1
254 | 17 | CS(=O)(=O)c1ccc(-c2ccc(N)cc2-c2ccccc2)cc1
– | > 1000 | CS(=O)(=O)c1ccc(-c2cccnc2-c2ccccc2)cc1
147 | 404 | CS(=O)(=O)c1ccc(-c2cc(O)ccc2-c2ccccc2)cc1
31 | > 1000 | CS(=O)(=O)c1ccc(-c2ccccc2C2CCCCC2)cc1
– | > 1000 | CS(=O)(=O)c1ccc(-c2ccccc2-c2ccccc2)cc1
> 300 | > 300 | CS(=O)(=O)c1ccc(-c2ccccc2-c2cncnc2)cc1
> 300 | > 300 | CS(=O)(=O)c1ccc(-c2ccccc2Cc2ccccc2)cc1

SMILES | IC50 [1] [µM] | IC50 [2] [µM]
CN1CC=C(c2ccccc2-c2ccc(S(C)(=O)=O)cc2)CC1 | > 300 | > 300
